# Experimental data from patent US7754743B2, “Heteroarylcarbamoylbenzene derivatives” (Banyu Pharmaceutical Co., Ltd., priority 2003, dated 2010).
# Where two headings read alike, the source gives them in different places.
# Biological target: T1, recombinant human liver GK (Homo sapiens, UniProt P35557)
# T1 construct: made in house; host or cells: E. coli
# T1 sequence (P35557 1-466 isoform P35557-2): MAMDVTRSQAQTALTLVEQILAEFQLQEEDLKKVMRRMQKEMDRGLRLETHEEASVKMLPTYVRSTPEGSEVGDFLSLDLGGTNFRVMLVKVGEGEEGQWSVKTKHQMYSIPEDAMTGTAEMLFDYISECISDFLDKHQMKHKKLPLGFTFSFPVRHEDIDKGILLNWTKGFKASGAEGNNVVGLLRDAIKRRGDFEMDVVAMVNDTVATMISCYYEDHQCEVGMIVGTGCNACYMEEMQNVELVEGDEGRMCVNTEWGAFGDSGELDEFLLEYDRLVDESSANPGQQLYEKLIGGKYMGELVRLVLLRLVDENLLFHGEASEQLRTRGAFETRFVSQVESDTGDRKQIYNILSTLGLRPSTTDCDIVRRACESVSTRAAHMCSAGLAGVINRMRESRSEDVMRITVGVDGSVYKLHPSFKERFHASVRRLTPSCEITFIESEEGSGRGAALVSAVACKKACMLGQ
# Assay: Glucokinase (GK) activation assay, G6PDH-coupled thio-NADH absorbance at 405 nm
# Assay type: biochemical
# Procedure: The glucokinase activity is the degree of activation of glucokinase, as determined not by direct measurement of glucose-6-phosphate, but by measurement of the amount of thio-NADH produced upon production of phosphogluconolactone from glucose-6-phosphate by the reporter enzyme glucose-6-phosphate dehydrogenase.
# The recombinant human liver GK used in this assay was expressed in E. coli as FLAG fusion protein, and it was purified by […] M2 AFFINITY GEL (Sigma).
# The assay was carried out using a flat-bottomed 96-well plate at 30° C. A 69 μl portion of assay buffer (25 mM Hepes Buffer: pH=7.2, 2 mM MgCl2, 1 mM ATP, 0.5 mM TNAD, 1 mM dithiothreitol) was dispensed, and either a DMSO solution of the compound or 1 μl of DMSO as a control was added. Next, 20 μl of an enzyme mixture (FLAG-GK, 20 U/ml G6PDH) precooled in ice bath was dispensed, and then 10 μl of 25 mM glucose was added as substrate and reaction was initiated (final glucose concentration=2.5 mM).
# FLAG-GK was added to produce an absorbance increment of from 0.05 to 0.1 after 5 minutes in the presence of 1% DMSO.
# The OD values were measured at each concentration of the evaluated compound, using the OD value of the DMSO control as 100%. The Emax (%) and EC50 (μM) values were calculated from the OD value at each concentration, and used as indices of the GK activating power of the compounds.
# [1] = final glucose concentration 2.5 mM, 30° C.
Emax,EC50 [1],"Emax (OD value of DMSO control as 100%, final glucose concentration 2.5 mM, 30° C., read-out: Emax(%))",Compound
957%,250 nM,,"Cc1csc(NC(=O)c2cc(Oc3ccc(S(C)(=O)=O)cc3)cc(OC(C)C)c2)n1 [Production Example 1, 5-isopropoxy-3-(4-methanesulfonylphenoxy)-N-(4-methylthiazol-2-yl)-benzamide]"
,530 nM,936%,"COC(=O)NCc1ccc(Oc2cc(OC(C)C)cc(C(=O)Nc3nccs3)c2)cc1 [Production Example 59, 5-isopropoxy-3-(4-methoxycarbonylaminomethylphenoxy)-N-thiazol-2-yl-benzamide]"
